Laboratory results from US6562602B2, “Fermentation and purification of mycolactones” (priority 2000, dated 2003).

Experiment: stability of individual enriched mycolactone isomers in presence and absence of laboratory light, followed by HPLC
Format: physicochemical
Details: ambient light versus no light; data not shown
Experimental: To monitor stability of the individual enriched isomers, HPLC data was collected on samples stored in the presence and absence of laboratory light. Measurements were made on samples stored in methanol at 23° C. Initial HPLC sampling was carried out on individual isomers shielded to minimize exposure to laboratory light. These same samples were allowed to remain in the autosampler, shielded from light, for 72 hours before additional HPLC data was collected. Following this, the samples were stored on a lab bench exposed to laboratory light for 52 hours, at which time the final HPLC data time point was collected. Under these conditions, samples that were shielded from light remained stable, showing no change in their respective HPLC chromatograms.

| Molecule | equilibration between double bond isomers |
| --- | --- |
| CC(=C\C=C\C(C)=C\C(O)C(O)CC(C)O)/C=C(C)/C=C/C(=O)OC1CCCC(=O)OC(C(C)C/C(C)=C/C(C)C(O)CC(C)O)C/C=C(\C)CC1C (centres unmarked) [mycolactone B] | occur only when the sample was exposed to ambient light |
| mycolactone A | occur only when the sample was exposed to ambient light |
